Experimental data: patent publication US9938249B2, “Anti-amyloid compounds containing benzofurazan” (Treventis Corporation, priority 2014, dated 2018)

Tests used:
Aβ40 = Aβ40 (Homo sapiens, UniProt P05067); assay: ThT Aβ aggregation assay (kinetic Thioflavin T fluorescence); type: biochemical; conditions: 20 μM Aβ, DMSO control at 80 hr = 0% inhibition, number in parenthesis = compound ID 1027 in that experiment; for inhibition at 10 µM: compound 10 μM, read-out: % inhib Thioflavin T Aβ 40 10 μM; for inhibition at 5 µM: 80 h, compound 5 μm (so in the source), read-out: % inhib Thioflavin T Aβ 40 (5 μm); for % inhib Thioflavin T Aβ 40 (3 μm): compound 3 μm (so in the source)
Description: Preparation of Aβ40 Stock Solutions
Aβ40 (1.0 mg) was pre-treated in a 1.5 mL microfuge tube with HFIP (1 mL) and sonicated for 20 min to disassemble any pre-formed Aβ aggregates. The HFIP was removed with a stream of argon and the Aβ dissolved in Tris base (5.8 mL, 20 mM, pH ˜10). The pH was adjusted to 7.4 with concentrated HCl (˜10 μL) and the solution filtered using a syringe filter (0.2 μm) before being used.
The kinetic ThT assay for Aβ aggregation is similar to that of Chalifour et al (Chalifour et al, 2003, J. Biol. Chem. 278:34874-81). Briefly, pre-treated Aβ40 or Aβ42 (40 μM in 20 mM Tris, pH 7.4) was diluted with an equal volume of 8 μM Thioflavin T (ThT) in Tris (20 mM, pH 7.4, 300 mM NaCl). Aliquots of Aβ/ThT (200 μL) were added to wells of a black polystyrene 96-well plate, followed by 2 μL of a compound in DMSO (variable concentration), or DMSO alone (controls). Incubations were performed in triplicate and were taken to contain 20 μM Aβ, various concentration of compound in 20 mM Tris, pH 7.4, 150 mM NaCl, 1% DMSO. Plates were covered with clear polystyrene lids and incubated at 37° C. in a Tecan Genios microplate reader.
Analysis of ThT and ThS Aggregation Assays
Fluorescence readings (λex=450 nm, λem=480 nm) were taken every 15 min., after first shaking at high intensity for 15 s and allowing to settle for 10 s before each reading. Active compounds attenuated the increase in fluorescence over time that occurred in controls. In FIGS. 1-7, the time this procedure was performed extended to 80 hours (rightmost part of X-axis), at which point fluorescence increase generally reached an asymptote. Applying a definition of DMSO control at 80 hr as 100% aggregation (0% inhibition) and DMSO control at 0 hr as 0% aggregation (100% inhibition), a % inhibition score where higher is better can be calculated for a given concentration of compound. By repeating this procedure over several concentrations, a […] (IC50) can be measured, as is given in the table below for some compounds.

[1] = target: Terminally biotinylated beta-amyloid (Aβ42) (Homo sapiens, UniProt P05067); assay: Aβ42 biotinylated (biotin-AB) oligomerization assay, NeutrAvidin capture ELISA; type: biochemical; conditions: approximate value; 1 hr oligomerization at room temperature; read-out: IC50 Aβ 42-bio
Description: Aβ42 Biotinylated Assay Terminally biotinylated beta-amyloid (biotin-AB) was dissolved in HFIP at the concentration of 1 mg/ml and aliquoted to 50 μl/tube in 0.65 ml colored microfuge tubes (Fisher 02-681-248). The aliquots were diluted immediately by adding 450 μl of HFIP to 0.1 mg/ml. Approximately 46 ul (containing approximately 4.6 ug of biotin-AB) were taken from a tube, 100 ul of HFIP added, vortexed, and dried to a thin film under an N2 stream. 100 μl of trifluoroacetic acid (TFA) was added and vortexed. After 10 minute incubation at room temperature in a hood, resulting in disaggregation of seeds, the sample was vortexed again and dried again to a thin film under an N2 stream. 100 μl of HFIP was added, mixed, and the biotin-AB sample was dried for a third time under an N2 stream to remove residual TFA. The treated biotin-AB was dissolved in DMSO to a final peptide concentration of […] (SOX). An ELISA “capture” plate (Costar 9018) was coated with 50 μl of 1 μg/ml NeutrAvidin™ (NA) in 10 mM sodium phosphate buffer, pH 7.5. (NeutrAvidin can be prepared as 1 mg/ml (1000×) in milliQ water/10% glycerol and stored at −80° C. before use.) The plate was sealed plate with adhesive film and stored at 4° C. overnight, then blocked for 2 hours (unsealed) at room temperature with 200 μl/well OFB+0.1% v/v Tween 20. The “capture” plate was allowed to come to room temperature. Several dilutions of test compound were prepared with 100% DMSO, according to the desired concentration to be tested. 2.5 μl of diluted test compound was pipetted into the bottom of each well of a 96-well “dilution” polypropylene plate (Costar 3365), to which was added 250 ul of Oligomer Formation Buffer (OFB: 20 mM sodium phosphate, pH 7.5-150 mM NaCl). To begin oligomerization, 2 μl/well of the biotin-AB was added to the bottom of each well of a 96-well “reaction” polypropylene plate (Costar 3365) and 100 ul of each well of the “dilution” plate was transferred to the “reaction” plate (final concentration of DMSO being up to 1%). The reaction plate was sealed and incubated for 1 hr at room temperature without shaking. The reaction was then stopped by the addition of 50 ul of 0.3% Tween 20 in water. The “capture” plate blocking solution was removed, and 50 ul of each well of the “reaction” plate was transferred to each well of the “capture” plate. The “capture” plate was sealed and incubated for 2 hours at room temperature with shaking at 150 rpm. The “capture” plate was then washed on a plate washer (3×) with 200 ul/well TBST (20 mM Tris-HCL, pH 7.5/150 mM NaCl/0.1% Tween 20). 50 ul of Streptavidin-horseradish […] (1:20,000 dilution) in OFB+0.1% Tween 20 was added to each well, the “capture” plate was sealed and incubated for 1 hr with shaking at 150 rpm. As before, the plate was washed, then 100 ul of TMB/H2O2 substrate solution was added to each well. After 5-10 minutes, 100 ul of 1% v/v sulfuric acid was added and the absorbance of each well was read at 450 nm using a standard plate reader. Data is summarized in the table below; numbers given in parenthesis for the Aβ 40 Thioflavin T assays are the values in that particular experiment for compound ID 1027, given as the first entry in this table for structural comparison. “IC50 Aβ42-bio” column refers to the approximate value of the Aβ42 biotinylated assay IC50 in micromoles/L.

Sequence of Aβ40 (P05067 672-711, species assumed): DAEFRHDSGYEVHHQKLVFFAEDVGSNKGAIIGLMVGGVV
Sequence of Terminally biotinylated beta-amyloid (Aβ42) (P05067 672-713, species assumed): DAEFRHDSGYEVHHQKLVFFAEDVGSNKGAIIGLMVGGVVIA

Row | Structure (SMILES) | inhibition at 10 µM (Aβ40) | IC50 [1] | inhibition at 5 µM (Aβ40) | % inhib Thioflavin T Aβ 40 (3 μm) (Aβ40)
1 | O=C(c1cc(N2CC(CN3CCCC3)C2)c2nonc2c1)C(F)(F)F [compound 1477] | 30% | 1.83 µM |  | 
2 | c1ccc2oc(-c3cc(N4CC(CN5CCCC5)C4)c4nonc4c3)cc2c1 [compound 1485] | 26% | 2.63 µM |  | 
3 | CN(C)CCCN(C)c1cc(-c2cccc(C(O)C(F)(F)F)c2)cc2nonc12 (centres unmarked) [compound 1465] |  | > 20 µM | 44% | 
4 | OC(c1cc(N2CC(CN3CCCC3)C2)c2nonc2c1)C(F)(F)F (centres unmarked) [compound 1520] | 46% | 6.1 µM |  | 
5 | c1coc(-c2cc(N3CC(CN4CCCC4)C3)c3nonc3c2)c1 [compound 1530] | 79% | 10.5 µM |  | 
6 | c1cc(-c2cc(N3CC(CN4CCCC4)C3)c3nonc3c2)cs1 [compound 1509] | 71% | > 20 µM |  | 
7 | COCCN1CC=C(c2cc(N3CC(CN4CCCC4)C3)c3nonc3c2)CC1 [compound 1519] | 53% | 8.2 µM |  | 
8 | CS(=O)(=O)c1ccccc1-c1cc(N2CC(CN3CCCC3)C2)c2nonc2c1 [compound 1481] | 11% | 6.14 µM |  | 
9 | Cc1ccc(-c2cc(N3CC(CN4CCCC4)C3)c3nonc3c2)cc1Cl [compound 1490] | 27% | 4.4 µM |  | 
10 | CC(=O)N1CCC=C(c2cc(N3CC(CN4CCCC4)C3)c3nonc3c2)C1 [compound 1521] | 20% | 30.1 µM |  | 
11 | CN1CCC=C(c2cc(N3CC(CN4CCCC4)C3)c3nonc3c2)C1 [compound 1524] | 61% | 14.9 µM |  | 
12 | O=C(c1ccccc1)N1CCN(c2ccc([N+](=O)[O-])c(Nc3ccccc3)c2)CC1 [compound 1027, reference compound] |  |  |  | 26%
13 | c1csc(-c2cc(N3CC(CN4CCCC4)C3)c3nonc3c2)c1 [compound 1529] | 74% | 9 µM |  | 
14 | CN(C)C(=O)c1ccccc1-c1cc(N2CC(CN3CCCC3)C2)c2nonc2c1 [compound 1542] | 36% | > 20 µM | 15% | 
15 | FC(F)(F)c1ccc(-c2cc(N3CC(CN4CCCC4)C3)c3nonc3c2)cc1 [compound 1502] | 55% | 4.78 µM |  | 
16 | CS(=O)(=O)c1cccc(-c2cc(N3CC(CN4CCCC4)C3)c3nonc3c2)c1 [compound 1479] | 24% | 7.94 µM |  | 
17 | c1cc(-c2cc(N3CC(CN4CCCC4)C3)c3nonc3c2)co1 [compound 1510] | 65% | > 20 µM |  | 
18 | OC(c1ccccc1-c1cc(N2CC(CN3CCCC3)C2)c2nonc2c1)C(F)(F)F (centres unmarked) [compound 1474] | 77% | 3.1 µM |  | 

Row | Structure (SMILES) | inhibition at 10 µM (Aβ40) | IC50 [1] | inhibition at 5 µM (Aβ40) | % inhib Thioflavin T Aβ 40 (3 μm) (Aβ40)
19 | CN(C)C(=O)c1ccc(-c2cc(N3CC(CN4CCCC4)C3)c3nonc3c2)cc1 [compound 1516] | 47% | > 20 µM |  | 
20 | Brc1cc(N2CC(CN3CCOCC3)C2)c2nonc2c1 [compound 1470] | 62% | > 20 µM |  | 
21 | CCN(CC)C(=O)c1cc(N2CC(CN3CCCC3)C2)c2nonc2c1 [compound 1540] | 50% | 1.8 µM | 41% | 
22 | CN1CC=C(c2cc(N3CC(CN4CCCC4)C3)c3nonc3c2)CC1 [compound 1517] | 33% | 6.8 µM |  | 
23 | CS(=O)(=O)c1ccc(-c2cc(N3CC(CN4CCCC4)C3)c3nonc3c2)cc1 [compound 1501] | 48% | > 20 µM |  | 
24 | OCC1CN(c2cc(-c3cccc(C(O)C(F)(F)F)c3)cc3nonc23)C1 (centres unmarked) [compound 1428] |  |  |  | 52%
25 | CS(=O)(=O)N1CC=C(c2cc(N3CC(CN4CCCC4)C3)c3nonc3c2)CC1 [compound 1518] | 35% | > 20 µM |  | 
26 | c1cncc(-c2cc(N3CC(CN4CCCC4)C3)c3nonc3c2)c1 [compound 1476] | 36% | 12.2 µM |  | 
27 | OC(c1cc(-c2cc(N3CCC(N4CCCC4)CC3)c3nonc3c2)cs1)C(F)(F)F (centres unmarked) [compound 1463] | 61% |  | 37% | 
28 | OC(c1cccc(-c2cc(N3CCC3)c3nonc3c2)c1)C(F)(F)F (centres unmarked) [compound 1432] |  |  |  | 23%
29 | N#Cc1cccc(-c2cc(N3CC(CN4CCOCC4)C3)c3nonc3c2)c1 [compound 1577, 3-(7-(3-(morpholinomethyl)azetidin-1-yl)benzo[c][1,2,5]oxadiazol-5-yl)benzonitrile] |  | 14.8 µM |  | 
30 | COc1ccc(-c2cc(N3CC(CN4CCOCC4)C3)c3nonc3c2)cc1F [compound 1585, 6-(3-fluoro-4-methoxyphenyl)-4-(3-(morpholinomethyl)azetidin-1-yl) benzo[c][1,2,5]oxadiazole] |  | 5.8 µM |  | 
31 | COCCN1CCCCC1c1cc(N2CC(CN3CCCC3)C2)c2nonc2c1 (centres unmarked) [compound 1556] |  | 6.6 µM |  | 
32 | CSc1cc(N2CC(CN3CCOCC3)C2)c2nonc2c1 [compound 1612, 6-(methylthio)-4-(3-(morpholinomethyl)azetidin-1-yl) benzo[c][1,2,5]oxadiazole] |  | > 20 µM |  | 
33 | OCc1cccc(-c2cc(N3CC(CN4CCOCC4)C3)c3nonc3c2)c1 [compound 1598] |  | 9.9 µM |  | 
34 | OC(c1ccc(-c2cc(N3CC(CN4CCOCC4)C3)c3nonc3c2)cn1)C(F)(F)F (centres unmarked) [compound 1618, 2,2,2-trifluoro-1-(5-(7-(3-(morpholinomethyl)azetidin-1-yl)benzo[c][1,2,5]oxadiazol-5-yl)pyridin-2-yl)ethan-1-ol] |  | 4.98 µM |  | 
35 | c1ccc(-c2cc(N3CC(CN4CCCC4)C3)c3nonc3c2)nc1 [compound 1580, 6-(Pyridin-2-yl)-4-(3-(pyrrolidin-1-ylmethyl)azetidin-1-yl)benzo[c][1,2,5]oxadiazole] |  | > 20 µM |  | 
